According to ChEMBL document CHEMBL2311342, “Inhibitors of the Yersinia protein tyrosine phosphatase through high throughput and virtual screening approaches” (Bioorg Med Chem Lett, 2013):

assay: Inhibition of Yersinia pestis YopH catalytic domain (residues 163-468) using pNPP substrate

Point of comparison: Cc1c(/C(=N/OC(=O)c2ccc(F)cc2)C(F)(F)F)cc(-c2ccc(S(C)(=O)=O)cc2)n1-c1ccc(F)cc1, IC50 2.35 µM. Against it:
- Cn1nc(-c2ccc(Cl)cc2)nc2c(=O)n(C)c(=O)nc1-2 — 1.8-fold lower, 1.28 µM
- Cc1c(N=c2c(=O)c3ccccc3c2=O)c(=O)n(-c2ccccc2)n1C — 1.7-fold higher, 4.01 µM
- O=C(O)c1ccc(-c2nc(-c3ccc(-c4ccccc4)cc3)c(-c3ccc(-c4ccccc4)cc3)[nH]2)cc1 — within 1.5-fold, 2.15 µM
- Cn1nc(-c2cccs2)nc2c(=O)n(C)c(=O)nc1-2 — 2.7-fold lower, 0.88 µM
- CN1C(=O)C(=Cc2cn(Cc3cnc(Cl)s3)c3ccccc23)C(=O)N(C)C1=O — 2-fold higher, 4.61 µM
- O=C(O)c1cc(-c2ccc(/C=N/Nc3nc4nonc4nc3Nc3ccc(F)cc3)o2)ccc1O — 6.2-fold lower, 0.38 µM
- O=C(COc1ccccc1)N1CCN(S(=O)(=O)c2ccccc2[N+](=O)[O-])CC1 — 2.4-fold lower, 0.98 µM
- O=C1Nc2ccc(Br)cc2/C1=C1/SC(=S)N(c2cccc(C(F)(F)F)c2)C1=O — 1.9-fold lower, 1.22 µM
- CCCCN1C(=O)/C(=C2\SC(N3CCC(C(N)=O)CC3)=NC2=O)c2ccccc21 — within 1.5-fold, 1.68 µM
- O=C1NC(=O)C(=Cc2ccc(OCc3ccc([N+](=O)[O-])cc3)c(Br)c2)C(=O)N1 — within 1.5-fold, 1.89 µM
- O=C(O)c1ccc(N2C(=O)c3ccc(-c4nc5ccccc5c(=O)o4)cc3C2=O)cc1 — within 1.5-fold, 1.92 µM
- COc1cc(/C=C2/N=C(c3ccc(Cl)c(Cl)c3)OC2=O)cc(OC)c1OC — 1.9-fold higher, 4.48 µM
- NC(=S)N1N=C(c2ccc([N+](=O)[O-])cc2)/C(=N\Nc2ccc(S(=O)(=O)O)cc2)C1=O — 2-fold higher, 4.61 µM
- O=C1NC(=S)NC(=O)C1=Cc1ccc(N2CCc3ccccc3C2)c([N+](=O)[O-])c1 — 2-fold higher, 4.73 µM
- O=C1OC(c2ccc(Cl)cc2)=N/C1=C/Nc1ccc(O)c(C(=O)O)c1 — 3.4-fold higher, 8.1 µM
- CN1C(=O)C(=Cc2ccc(OCc3c(F)cccc3Cl)cc2)C(=O)N(C)C1=O — 4.2-fold higher, 9.89 µM
